Some test systems named below: SN12C; SK-MEL-28; HCT-15; IGROV-1; ACHN; A549; SK-MEL-5; HL-60; OVCAR-5; DU-145; EKVX; SK-MEL-2; MDA-MB-231; SF-539; SF-268; UACC-62; HT-29; COLO 205; HCT-116; SNB-19.
Holding throughout (experiment): NCI tumour cell line growth inhibition, 48 h

Structures are written as SMILES.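 1) Cells in 96-well plates. 2) Compound, 48 h, 5 concentrations. 3) Linear interpolation between surrounding doses. 4) Unreached endpoint = highest concentration. At the GI50, growth is halved.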 Calls of active or inactive are those of the source. No stated cut-off is given here; in the data, active = GI50 up to about 1.1 µM and inactive = higher. Bounds are passed on as bounds.

With `O=C(O)CCC1(c2ccccc2)NC(=O)NC1=O` (stereo not given), the GI50 in the test on SN12C is > 100 µM (inactive); in the test on SK-MEL-28 it was > 100 µM (inactive); in the test with HCT-15 it was over 100 µM; in the test with IGROV-1 it was > 100 µM (inactive); with ACHN, > 100 µM (inactive); in the test with A549 it was > 100 µM (inactive). Besides, the GI50 in the test on SK-MEL-5, with HL-60, in the test on OVCAR-5, in the test on DU-145, in the test with EKVX and with SK-MEL-2 was > 100 µM (inactive) throughout. In addition, the GI50 with MDA-MB-231, with SF-539, with SF-268, with UACC-62, in the test with HT-29 and in the test with COLO 205 was > 100 µM (inactive) in each case. Also, the GI50 in the test with HCT-116 was > 100 µM (inactive).

With `Cc1ccc(NC(=O)/C=C/c2ccccc2)c(C)c1`, the GI50 in the test on SN12C was 94.8 µM (inactive); with SK-MEL-28 it was > 100 µM (inactive); in the test with HCT-15 it was over 100 µM; in the test with ACHN, 39.6 µM (inactive); in the test on A549, > 100 µM (inactive); in the test with SK-MEL-5, > 100 µM (inactive). The GI50 is > 100 µM (inactive) with HL-60; > 100 µM (inactive) in the test with OVCAR-5; > 100 µM (inactive) in the test on DU-145; 26.6 µM (inactive) with EKVX; > 100 µM (inactive) in the test on SK-MEL-2; 52.1 µM (inactive) in the test with MDA-MB-231. Moreover, the GI50 in the test on SF-539 was > 100 µM (inactive); in the test with SF-268, 52 µM (inactive); in the test on UACC-62, > 100 µM (inactive); with HT-29, > 100 µM (inactive); with COLO 205, > 100 µM (inactive); in the test with HCT-116 it was > 100 µM (inactive). Besides, the GI50 in the test on SNB-19 is > 100 µM (inactive).

On to `O=Cc1c2ccccc2n2ccc3c4ccccc4[nH]c3c12`, for which the GI50 with SN12C is > 10 µM (inactive); with HCT-15, over 10 µM; in the test on IGROV-1, > 10 µM (inactive); in the test with ACHN, > 10 µM (inactive); with A549, > 10 µM (inactive); with SK-MEL-5 it was > 10 µM (inactive). Moreover, the GI50 in the test on HL-60 was > 10 µM (inactive); with OVCAR-5, > 10 µM (inactive); in the test on DU-145 it was > 10 µM (inactive); in the test with EKVX, 3.57 µM (inactive); in the test with SK-MEL-2, > 10 µM (inactive); in the test with MDA-MB-231, > 10 µM (inactive). Besides, the GI50 in the test with SF-539, with SF-268, with UACC-62, in the test with HT-29, in the test on COLO 205 and with HCT-116 was > 10 µM (inactive) in each case. Also, the GI50 with SNB-19 was > 10 µM (inactive).

Take `COc1ccc2c(c1)C(OC)C1c3c(cc4c(c3-2)OCO4)CCN1C` (stereo not given): the GI50 was 2.64 µM (inactive) in the test on SN12C; 3.88 µM (inactive) with SK-MEL-28; 2.13 µM with HCT-15; 2.88 µM (inactive) in the test with IGROV-1; 1.82 µM (inactive) in the test on ACHN; 2.92 µM (inactive) in the test with A549. The GI50 is 2.43 µM (inactive) in the test with SK-MEL-5; 1.24 µM (inactive) in the test with HL-60; 3.13 µM (inactive) in the test on OVCAR-5; 5.41 µM (inactive) in the test on DU-145; 4.34 µM (inactive) in the test on EKVX; 2.73 µM (inactive) with SK-MEL-2. In addition, the GI50 was 2.44 µM (inactive) with MDA-MB-231; 2.54 µM (inactive) in the test on SF-539; 4.63 µM (inactive) in the test on SF-268; 2.11 µM (inactive) in the test with UACC-62; 2.21 µM (inactive) in the test on HT-29; 2.79 µM (inactive) with COLO 205. For the same compound, the GI50 was 2.1 µM (inactive) in the test on HCT-116 and 3.12 µM (inactive) with SNB-19.

On to `O[C@@H]1CCC[C@@H]2NC[C@@H](c3ccc4c(c3)OCO4)[C@H]12`, for which the GI50 in the test with SK-MEL-28 was > 100 µM (inactive); with HCT-15 it was over 100 µM; in the test with IGROV-1, > 100 µM (inactive); with ACHN, > 100 µM (inactive); in the test with A549 it was > 100 µM (inactive); in the test with SK-MEL-5, > 100 µM (inactive). Besides, the GI50 in the test with HL-60 was 96.4 µM (inactive); in the test on OVCAR-5, > 100 µM (inactive); in the test with DU-145, > 100 µM (inactive); with EKVX, > 100 µM (inactive); with SK-MEL-2, > 100 µM (inactive); in the test with MDA-MB-231, > 100 µM (inactive). Besides, the GI50 in the test with SF-539, in the test with SF-268, in the test with UACC-62, in the test on HT-29, with COLO 205 and in the test on SNB-19 was > 100 µM (inactive) in each case.

For `CCN(CC)CCCNc1nncc2c(C)c3[nH]c4ccccc4c3cc12`, the GI50 in the test with SN12C is 0.292 µM (active); in the test with SK-MEL-28 it was 1.24 µM (inactive); with HCT-15 it was 7.57 µM; in the test on IGROV-1, 0.617 µM (active); in the test with ACHN, 0.914 µM (active); in the test on A549 it was 0.67 µM (active). The GI50 in the test on SK-MEL-5 is 1.99 µM (inactive); with HL-60 it was 0.267 µM (active); in the test on OVCAR-5, 1.71 µM (inactive); with DU-145, 0.706 µM (active); in the test on EKVX it was 1.37 µM (inactive); with SK-MEL-2 it was 2.22 µM (inactive). For the same compound, the GI50 with MDA-MB-231 is 0.374 µM (active); with SF-539 it was 1.12 µM (inactive); in the test on UACC-62, 0.637 µM (active); in the test on HT-29, 0.258 µM (active); with COLO 205, 0.653 µM (active); in the test on SNB-19, 0.644 µM (active).

For the compound `O=C(N/N=C(COc1ccccc1Cl)\N=C\c1cccnc1)c1ccncc1`, the GI50 was > 100 µM (inactive) with SN12C; > 100 µM (inactive) with SK-MEL-28; over 100 µM in the test on HCT-15; > 100 µM (inactive) in the test with IGROV-1; > 100 µM (inactive) in the test with ACHN; > 100 µM (inactive) in the test with A549. Besides, the GI50 with HL-60, with OVCAR-5, in the test with DU-145, with EKVX, in the test with SK-MEL-2 and in the test on MDA-MB-231 was > 100 µM (inactive) throughout. Besides, the GI50 in the test with SF-539, with SF-268, in the test on UACC-62, in the test with HT-29, in the test with COLO 205 and with HCT-116 was > 100 µM (inactive) throughout. The GI50 in the test on SNB-19 is > 100 µM (inactive).

For `COc1ccc(-c2nc3ccccc3c(=S)n2OC(C)=O)cc1`, the GI50 was 8.07 µM (inactive) in the test with SN12C; 6.5 µM (inactive) in the test with SK-MEL-28; 0.755 µM in the test on HCT-15; 0.143 µM (active) with IGROV-1; 2.99 µM (inactive) in the test with ACHN; 2.5 µM (inactive) in the test on A549. In addition, the GI50 in the test with SK-MEL-5 is 2.93 µM (inactive); in the test with HL-60 it was 1.04 µM (active); in the test on OVCAR-5, > 25 µM (inactive); in the test with DU-145 it was 5.11 µM (inactive); with EKVX, 6.46 µM (inactive); in the test with SK-MEL-2, > 25 µM (inactive). The GI50 with MDA-MB-231 is > 25 µM (inactive); with SF-539, 4.89 µM (inactive); in the test with SF-268, 2.99 µM (inactive); with UACC-62, 2.8 µM (inactive); in the test with HT-29, 2.55 µM (inactive); in the test with COLO 205, 2.38 µM (inactive). The GI50 was 1.91 µM (inactive) with HCT-116 and 21.1 µM (inactive) in the test on SNB-19.

As to `O=C1OC(c2ccccc2)=N/C1=C\c1cn[nH]n1`, the GI50 in the test with SN12C was > 100 µM (inactive); in the test on SK-MEL-28, > 100 µM (inactive); with HCT-15 it was over 100 µM; in the test with IGROV-1 it was > 100 µM (inactive); in the test on ACHN, > 100 µM (inactive); in the test with A549, > 100 µM (inactive). Further, the GI50 with HL-60, in the test with OVCAR-5, in the test on DU-145, with EKVX, in the test on SK-MEL-2 and in the test with MDA-MB-231 was > 100 µM (inactive) throughout. In addition, the GI50 in the test with SF-539 was 70.1 µM (inactive); in the test on SF-268 it was > 100 µM (inactive); in the test on UACC-62, > 100 µM (inactive); in the test with HT-29, > 100 µM (inactive); in the test on COLO 205 it was > 100 µM (inactive); with HCT-116 it was > 100 µM (inactive). The GI50 with SNB-19 is > 100 µM (inactive).

For `CSCCCCCCCCCCOc1ccc(C=C2C(=C(C#N)C#N)c3ccccc3C2=C(C#N)C#N)cc1`, the GI50 is 16.1 µM (inactive) with SK-MEL-28; 23.1 µM with HCT-15; 17.3 µM (inactive) in the test on IGROV-1; 13.1 µM (inactive) in the test with ACHN; 17.9 µM (inactive) in the test on SK-MEL-5; 0.0962 µM (active) in the test with HL-60. The GI50 is 16.6 µM (inactive) with OVCAR-5; 15.6 µM (inactive) in the test on DU-145; 18.1 µM (inactive) with EKVX; 20.1 µM (inactive) with SK-MEL-2; 19.4 µM (inactive) with MDA-MB-231; 18 µM (inactive) with SF-539. Further, the values for the GI50 in the test on SF-268, with HT-29 and with HCT-116 were 17.9 µM (inactive), 17.3 µM (inactive) and 16.9 µM (inactive), respectively.

`COc1ccc2nc(-c3ccc(O)cc3)sc2c1`: the GI50 was 20.6 µM (inactive) in the test on SN12C; 17.9 µM in the test with HCT-15; 19.1 µM (inactive) with IGROV-1; 18 µM (inactive) with ACHN; 36.6 µM (inactive) in the test on A549; 18.2 µM (inactive) in the test with SK-MEL-5. In addition, the GI50 was 24 µM (inactive) with HL-60; 17.7 µM (inactive) in the test on OVCAR-5; 34.7 µM (inactive) with DU-145; 18.1 µM (inactive) in the test with EKVX; 43.4 µM (inactive) with SK-MEL-2; 23 µM (inactive) in the test with MDA-MB-231. Besides, the GI50 was 21.4 µM (inactive) in the test with SF-539; 21.1 µM (inactive) with SF-268; 21.7 µM (inactive) in the test on UACC-62; 20 µM (inactive) in the test on HT-29; 21.5 µM (inactive) with COLO 205; 17.5 µM (inactive) with HCT-116. Moreover, the GI50 in the test on SNB-19 was 34.7 µM (inactive).

(Values after ChEMBL document CHEMBL1201862, “PubChem BioAssay data set” (2004).)
